Measurements taken from patent US7176224B2, “Oxazolyl-aryloxyacetic acid derivatives and their use as PPAR agonists” (Eli Lilly and Company, priority 2000, dated 2007).

What was measured:
huPPARα [1] = assay: Cotransfection assay in CV-1 cells, luciferase reporter; format: cell-based, human; conditions: GAL4 chimeric system, relative to PPARα agonist reference molecule
Protocol: (§1) […] binding (ABCD binding) was carried out using SPA technology with PPAR receptors. Tritium-labeled PPARα and PPARγ agonists were used as radioligands for generating displacement curves and IC50 values with compounds of the invention. Cotransfection assays were carried out in CV-1 cells. The reporter plasmid contained an acylCoA oxidase (AOX) PPRE and TK promoter upstream of the luciferase reporter cDNA. Appropriate PPARs and RXRα were constitutively expressed using plasmids containing the CMV promoter. For PPARα and PPARγ, interference by endogenous PPARγ in CV-1 cells was an issue. In order to eliminate such interference, a GAL4 chimeric system was used in which the DNA binding domain of the transfected PPAR was replaced by that of GAL4, and the GAL4 response element was utilized in place of the AOX PPRE. Cotransfection efficacy was determined relative to PPARα agonist and PPARβ agonist reference molecules. Efficacies were determined by computer fit to a concentration-response curve, or in some cases at a single high concentration of agonist (10 μM). For binding or cotransfection studies with receptors other than PPARs, similar assays were carried out using appropriate ligands, receptors, reporter constructs, etc., for that particular receptor.
(§2) These studies were carried out to evaluate the ability of compounds of the invention to bind to and/or activate various nuclear transcription factors, particularly huPPARα (“hu” indicates “human”) and huPPARγ. These studies provide in vitro data concerning efficacy and selectivity of compounds of the invention. Furthermore, binding and cotransfection data for compounds of the invention were compared with corresponding data for marketed compounds that act on either huPPARα or huPPARγ.

huPPARγ [2] = assay: as above; format: cell-based, human; conditions: GAL4 chimeric system, relative to agonist reference molecule
Protocol: as §1, with “Tritium-labeled PPARα and PPARγ agonists were used as radioligands for generating displacement curves and IC50 values with compounds of the invention.” left out, “For PPARα and PPARγ, interference by endogenous PPARγ in CV-1 cells was an issue.” left out, “Cotransfection efficacy was determined relative to PPARα agonist and PPARβ agonist reference molecules.” left out
as §2

huPPARγ [3] = biological target: T1, huPPARγ (Homo sapiens, UniProt P37231); assay: DNA-dependent binding (ABCD binding), SPA, radioligand displacement; conditions: tritium-labeled PPARγ agonist radioligand
T1 sequence (P37231 1-505): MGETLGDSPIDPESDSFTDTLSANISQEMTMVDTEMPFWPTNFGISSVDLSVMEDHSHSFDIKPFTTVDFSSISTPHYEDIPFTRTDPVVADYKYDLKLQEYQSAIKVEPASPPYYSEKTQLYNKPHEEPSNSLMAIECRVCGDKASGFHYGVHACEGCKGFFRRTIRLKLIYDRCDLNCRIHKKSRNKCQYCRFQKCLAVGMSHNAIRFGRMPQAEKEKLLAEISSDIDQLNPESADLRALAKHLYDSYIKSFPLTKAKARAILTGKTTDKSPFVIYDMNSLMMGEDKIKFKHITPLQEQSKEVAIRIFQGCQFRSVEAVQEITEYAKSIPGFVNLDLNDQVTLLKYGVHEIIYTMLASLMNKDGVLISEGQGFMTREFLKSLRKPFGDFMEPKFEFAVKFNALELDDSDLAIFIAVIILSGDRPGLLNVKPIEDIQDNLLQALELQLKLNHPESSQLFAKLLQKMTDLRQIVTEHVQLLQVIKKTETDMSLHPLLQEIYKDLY
T1 sequence (P19793 1-462 partner): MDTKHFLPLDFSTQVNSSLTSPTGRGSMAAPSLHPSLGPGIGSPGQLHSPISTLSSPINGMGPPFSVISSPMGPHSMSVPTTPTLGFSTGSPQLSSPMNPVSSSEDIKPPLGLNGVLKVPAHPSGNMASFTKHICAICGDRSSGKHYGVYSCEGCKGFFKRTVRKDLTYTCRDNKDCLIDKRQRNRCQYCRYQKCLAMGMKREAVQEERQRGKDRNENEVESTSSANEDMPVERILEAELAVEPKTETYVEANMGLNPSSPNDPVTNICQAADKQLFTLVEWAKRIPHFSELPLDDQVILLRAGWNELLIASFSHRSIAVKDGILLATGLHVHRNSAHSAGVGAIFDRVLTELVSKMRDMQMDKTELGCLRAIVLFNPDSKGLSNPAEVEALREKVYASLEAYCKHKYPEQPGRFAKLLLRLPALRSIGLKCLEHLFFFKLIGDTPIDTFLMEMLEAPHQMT
Protocol: as §1, with “For PPARα and PPARγ, interference by endogenous PPARγ in CV-1 cells was an issue.” left out
as §2

huPPARα [4] = biological target: T2, huPPARα (Homo sapiens, UniProt Q07869); assay: as above; conditions: tritium-labeled PPARα agonist radioligand
T2 sequence (Q07869 1-468): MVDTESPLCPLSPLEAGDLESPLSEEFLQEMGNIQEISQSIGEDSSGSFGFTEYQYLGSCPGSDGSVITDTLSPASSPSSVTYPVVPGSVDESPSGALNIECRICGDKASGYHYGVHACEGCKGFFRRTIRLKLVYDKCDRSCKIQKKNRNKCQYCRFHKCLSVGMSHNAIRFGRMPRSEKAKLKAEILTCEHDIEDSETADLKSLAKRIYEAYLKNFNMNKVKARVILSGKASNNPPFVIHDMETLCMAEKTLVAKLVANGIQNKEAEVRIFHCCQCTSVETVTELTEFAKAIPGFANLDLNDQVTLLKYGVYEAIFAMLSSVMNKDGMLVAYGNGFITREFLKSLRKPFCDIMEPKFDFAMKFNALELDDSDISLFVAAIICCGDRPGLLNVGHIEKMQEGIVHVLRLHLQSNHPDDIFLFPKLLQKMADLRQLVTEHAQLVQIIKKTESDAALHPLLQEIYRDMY
T2 sequence (P19793 1-462 partner): T1 sequence (P19793 1-462 partner)
Protocol: as §1, with “For PPARα and PPARγ, interference by endogenous PPARγ in CV-1 cells was an issue.” left out
as §2

| Compound | IC50 (huPPARγ [3]) | IC50 (huPPARα [4]) | huPPARα CTF Efficacy (huPPARα [1]) | huPPARγ CTF Efficacy (huPPARγ [2]) |
| --- | --- | --- | --- | --- |
| Cc1c(C)c2c(c(C)c1O)CCC(C)(COc1ccc(CC3SC(=O)NC3=O)cc1)O2 (stereo not drawn) [Troglitazone, reference compound] |  |  | 0% |  |
| Cc1oc(-c2ccc(-c3cccs3)cc2)nc1CCOc1ccc(CC(C)(Oc2ccc(C(C)(C)C)cc2)C(=O)O)cc1 (stereo not drawn) [Example 17, 2-Methyl-3-(4-{2-[5-methyl-2-(4-thiophen-2-yl-phenyl)-oxazol-4-yl]-ethoxy}-phenyl)-2-(4-tert-butylphenoxy)-propionic acid] | 0.119 µM | 0.186 µM | 116% | 80% |
| COc1cc(CC(C)(Oc2ccccc2)C(=O)O)ccc1OCCc1nc(-c2ccc(-c3ccccc3)cc2)oc1C (stereo not drawn) [Example 7, 3-{4-[2-(2-Biphenyl-4-yl-5-methyloxazol-4-yl)ethoxy]-3-methoxyphenyl}-2-methyl-2-phenoxypropionic acid] | 0.174 µM | 4.12 µM | 60% | 93% |
| Cc1oc(-c2ccc(-c3cccs3)cc2)nc1CCOc1ccc(CC(C)(Oc2cccc(F)c2)C(=O)O)cc1 (stereo not drawn) [Example 22, 2-(3-Fluoro-phenoxy)-2-methyl-3-(4-{2-[5-methyl-2-(4-thiophen-2-yl-phenyl)-oxazol-4-yl]-ethoxy}-phenyl)-propionic acid] | 0.078 µM | 0.26 µM | 63% | 100% |
| CC(C)(Oc1ccc(C(=O)c2ccc(Cl)cc2)cc1)C(=O)O [Fenofibric acid, reference compound] |  |  | 16% | 0% |
| Cc1oc(-c2ccc(-c3ccccc3)cc2)nc1CCOc1ccc(CC(C)(Oc2ccc(C(C)(C)C)cc2)C(=O)O)cc1 (stereo not drawn) [Example 15, 3-{4-[2-(2-Biphenyl-4-yl-5-methyl-oxazol-4-yl)-ethoxy]-phenyl}-2-methyl-2-(4-tert-butylphenoxy)-propionic acid] | 0.107 µM | 0.196 µM | 96% | 90% |

Continued by falling IC50 (huPPARγ [3]), values first:

| IC50 (huPPARγ [3]) | IC50 (huPPARα [4]) | Compound | huPPARα CTF Efficacy (huPPARα [1]) | huPPARγ CTF Efficacy (huPPARγ [2]) |
| --- | --- | --- | --- | --- |
| 0.056 µM | 0.203 µM | Cc1oc(-c2cccc(-c3ccccc3)c2)nc1CCOc1ccc(CC(C)(Oc2ccc(F)cc2)C(=O)O)cc1 (stereo not drawn) [Example 51, 3-{4-[2-(2-Biphenyl-3-yl-5-methyl-oxazol-4-yl)-ethoxy]-phenyl}-2-(4-fluoro-phenoxy)-2-methyl-propionic acid] | 43% | 160% |
| 0.056 µM | 0.31 µM | CCC(Cc1ccc(OCCc2nc(-c3cccc(-c4cccs4)c3)oc2C)cc1)(Oc1ccccc1)C(=O)O (stereo not drawn) [Example 42, 2-(4-{2-[5-Methyl-2-(3-thiophen-2-yl-phenyl)-oxazol-4-yl]-ethoxy}-benzyl)-2-phenoxy-butyric acid] | 49% | 105% |
| 0.055 µM | 0.159 µM | Cc1oc(-c2cccc(-c3cccs3)c2)nc1CCOc1ccc(CC(C)(Oc2ccc(Cl)cc2)C(=O)O)cc1 (stereo not drawn) [Example 26, 2-(4-Chlorophenoxy)-2-methyl-3-(4-{2-[5-methyl-2-(3-thiophen-2-yl-phenyl)-oxazol-4-yl]-ethoxy}-phenyl)-propionic acid] | 54% | 100% |
| 0.054 µM | 0.182 µM | Cc1cccc(OC(C)(Cc2ccc(OCCc3nc(-c4cccc(-c5ccccc5)c4)oc3C)cc2)C(=O)O)c1 (stereo not drawn) [Example 48, 3-{4-[2-(2-Biphenyl-3-yl-5-methyl-oxazol-4-yl)-ethoxy]-phenyl}-2-methyl-2-m-tolyloxy-propionic acid] | 45% | 145% |
| 0.045 µM | 0.402 µM | CCC(Cc1ccc(OCCc2nc(-c3cccc(-c4ccccc4)c3)oc2C)cc1)(Oc1ccccc1)C(=O)O (stereo not drawn) [Example 41, 2-{4-[2-(2-Biphenyl-3-yl-5-methyl-oxazol-4-yl)-ethoxy]-benzyl}-2-phenoxy-butyric acid] | 44% | 108% |
| 0.041 µM | 0.605 µM | COc1cc(CC(C)(Oc2ccccc2)C(=O)O)ccc1OCCc1nc(-c2cccc(-c3ccccc3)c2)oc1C (stereo not drawn) [Example 8, 3-{4-[2-(2-Biphenyl-3-yl-5-methyloxazol-4-yl)ethoxy]-3-methoxyphenyl}-2-methyl-2-phenoxypropionic acid] | 45% | 91% |
| 0.04 µM | 0.165 µM | Cc1ccc(OC(C)(Cc2ccc(OCCc3nc(-c4ccc(-c5ccccc5)cc4)oc3C)cc2)C(=O)O)cc1C (stereo not drawn) [Example 34, 3-{4-[2-(2-Biphenyl-4-yl-5-methyl-oxazol-4-yl)-ethoxy]-phenyl}-2-(3,4-dimethyl-phenoxy)-2-methyl-propionic acid] | 61% | 95% |
| 0.037 µM | 0.145 µM | Cc1oc(-c2cccc(-c3ccccc3)c2)nc1CCOc1ccc(CC(C)(Oc2ccc3c(c2)OCO3)C(=O)O)cc1 (stereo not drawn) [Example 58, 2-(Benzo[1,3]dioxol-5-yloxy)-3-{4-[2-(2-biphenyl-3-yl-5-methyl-oxazol-4-yl)-ethoxy]-phenyl}-2-methyl-propionic acid] | 48% | 101% |
